This is an account of results in PubChem BioAssay AID2060498 (Molecular Pharmacology Branch, DTP, NCI, 2025).

The assay deals with 171881-019-R-J1-PDC tumor spheroids, viability. In words: Anticancer human tumor 171881-019-R-J1-PDC patient-derived invasive breast carcinoma cell line growth inhibition [GQUAD]. The following applies: spheroids with HUVEC and MSC; for viability, T/C: stronger effect = lower value. The source says:
DNA G-quadruplex Stabilizer Agents in Combinations in Complex Spheroids
A high-throughput screen of multi-cell type tumor spheroids was designed to identify active combinations of DNA G-quadruplex stabilizer agents and targeted small molecules. Complex spheroids include a stromal component modeled by human endothelial cells (HUVEC) and fibroblasts modeled by human mesenchymal stem cells (MSCs). The concentration ranges selected for each drug and investigational agent were based upon clinically achievable concentrations if the clinical Cmax of the agent was known.
Compounds. The drugs and investigational agents: pidnarulex (CX-5461; NSC782164), APTO-253 (NSC789042), BRACO-19 (NSC847499), peposertib (NSC802822), ceralasertib (NSC780249), elimusertib (NSC800525), camonsertib (NSC841442), AZD-1390 (NSC803789), olaparib (NSC753686), talazoparib (NSC767125), ART-558 (NSC835418), sotorasib (NSC818433), MRTX-1133 (NSC836407), SN-38 (NSC673596), topotecan (NSC609699), etoposide (NSC141540), doxorubicin (NSC123127), gemcitabine (NSC613327), 5-fluorouracil (NSC19893), paclitaxel (NSC125973), vemurafenib (NSC761431), panobinostat (NSC761190), R-306465 (JNJ-16241199; NSC773264), adavosertib (NSC754352), TP-3654 (NSC805149), carboplatin (NSC241240), KSQ-4279 (NSC840948), and staurosporine (NSC755774) were obtained from the National Cancer Institute (NCI) Developmental Therapeutics Program Chemical Repository (34). The FDA-approved anticancer drug set is available from the NCI Developmental Therapeutics Program. […] The stock solutions were prepared in dimethyl sulfoxide (DMSO, Sigma-Aldrich, St. Louis, MO, cat. D2650) at 800-fold the tested concentration and stored at -70 degrees C prior to their use. All drugs and investigational agents were tested over a range starting from a high concentration at or near the clinical Cmax and decreasing in half-log increments. If the clinical Cmax for an agent had not been determined, the highest concentration tested was 10 microM.
2.3 Cell Culture. All cells were maintained in an incubator at 37 degrees C and 5% CO2 with 95% humidity. The PDC lines were cultured according to standard operating procedures established by the NCI PDMR. All PDCs were thawed and cultured in Matrigel-coated flasks prepared with a working solution of 1X Ham's F-12 nutrient mix, without supplementation (Invitrogen, cat. 11765054), 100 U/mL penicillin-streptomycin (Invitrogen, cat. 15140122), and 2.5% Matrigel (Corning Inc., cat. 354248) for the first three passages. The 857933-349-R-J2-PDC line was cultured in 6C/Colon 1B media, which includes advanced DMEM/F-12 (Thermo Fisher Scientific, cat. 12634028), 10 mM HEPES (Thermo Fisher Scientific, cat. 15630080), 1X GlutaMAX supplement (Thermo Fisher Scientific, cat. 35050061), 0.1 mg/mL primocin (InvivoGen, cat. ant-pm-2), 10% defined fetal bovine serum, heat inactivated (HyClone Laboratories Inc., cat. SH30070.03HI), 50% L-WRN conditioned media (ATCC, cat. CRL-3276), 1.25 mM N-Acetyl-L-cysteine (Sigma-Aldrich, cat. A9165), 10 mM nicotinamide (Sigma-Aldrich, cat. N0636), 1X B-27 supplement (Thermo Fisher Scientific, cat. 17504044), 1X N-2 supplement (Thermo Fisher Scientific, cat. 17502048), 10 microM Y-27632 dihydrochloride (Tocris Bioscience, cat. 1254), and 50 ng/mL human EGF recombinant protein (Thermo Fisher Scientific, cat. PHG0311). The 485176-168-R4-J1-PDC line was cultured in Panc media, which includes all 6C/Colon 1B media components plus 100 ng/mL human FGF-10 (Thermo Fisher Scientific, cat. 100-26), 500 nM SB-431542 (Selleckchem, cat. S1067), and gastrin (Tocris, cat. 3006).
[…]

Several values for one entry are separate records, joined by “and”; a condition that tells them apart may be missing. Equal values may be shown once.
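Further: spheroids exposed to compounds for 7 days.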

One may read the viability, T/C as the result in the treated group divided by that in the control group, in per cent. For orientation: IC50 means the concentration needed to halve the response being measured. In the case of `C=CC(=O)N1CCN(c2nc(=O)n(-c3c(C)ccnc3C(C)C)c3nc(-c4c(O)cccc4F)c(F)cc23)C(C)C1` (centres undefined), the viability, T/C was 85.8% and 97% and 88.1% (compound 0.0316 µM); 94.8% and 102% and 105% (compound 0.1 µM); 101% (2×) and 104% (compound 0.316 µM); 104% (2×) and 108% (compound 1 µM); 96.7% and 93.7% and 96.9% (compound 3.16 µM); 51.8% and 53.1% and 55.6% (compound 10 µM). Under “curve of compound”, the IC50 is above 10000 nM.

As for `CC(=O)O[C@H]1C(=O)[C@@]2(C)[C@H]([C@H](OC(=O)c3ccccc3)[C@]3(O)C[C@H](OC(=O)[C@H](O)[C@@H](NC(=O)c4ccccc4)c4ccccc4)C(C)=C1C3(C)C)[C@]1(OC(C)=O)CO[C@@H]1C[C@@H]2O`, the viability, T/C was 50.5% and 44.8% and 33.4% (compound 0.0316 µM); 32.6% and 33.4% and 25.7% (compound 0.1 µM); 32% and 29.3% and 21.5% (compound 0.316 µM); 29.8% and 26.7% and 22.8% (compound 1 µM); 29.6% and 24.3% and 23.2% (compound 3.16 µM); 29.6% (2×) and 24% (compound 10 µM). For the same compound, where the note is “curve of compound”, the IC50 is below 31.6 nM.

Take `CC(C)n1c(=O)n(C)c2cnc3cc(F)c(-c4ccc(OCCCN5CCCCC5)nc4)cc3c21`: the viability, T/C is 93.2% and 98.1% and 85.8% (compound 0.0316 µM); 95.7% and 88.2% and 81.6% (compound 0.1 µM); 96.2% and 94.4% and 102% (compound 0.316 µM); 74.8% and 82.3% and 78.2% (compound 1 µM); 55.2% and 38.8% and 51.6% (compound 3.16 µM); 20.5% and 11.7% and 18.7% (compound 10 µM). The IC50 (curve of compound) is 3590 nM and 2350 nM and 3270 nM.

With `CC1COCCN1c1cc(-c2ccnn2C)c2ccnc(-c3ccn[nH]3)c2n1` (centres undefined), the viability, T/C reads like this: (compound 0.0316 µM) 65.6% and 74.5% and 75.8%; (compound 0.1 µM) 35.5% and 31.4% and 31.2%; (compound 0.316 µM) 15.8% and 12.9% and 15.2%; (compound 1 µM) 8.71% and 4.99% and 7.86%; (compound 3.16 µM) 5% and 2.03%; (compound 10 µM) 4.63% and 1.67% and 5.37%. In addition, for the setting “curve of compound”, the IC50 was 57.4 nM and 61 nM and 62 nM.

Consider `CC1COCCN1c1cc(C2(O)CC3CCC(C2)O3)c2cnn(-c3ccn[nH]3)c2n1` (centres undefined), for which the viability, T/C was 52.1% and 55.1% and 56% (compound 0.0316 µM); 21.3% and 20.7% and 15.9% (compound 0.1 µM); 9.11% and 9.51% and 6.18% (compound 0.316 µM); 6.21% and 5.84% and 2.3% (compound 1 µM); 4.07% and 4.22% and 1.52% (compound 3.16 µM); 3.07% and 3.7% and 0.82% (compound 10 µM). Also, where the note is “curve of compound”, the IC50 is 33.8 nM and 37.4 nM and 37.3 nM.

On to `CC1COCCN1c1cc(C2(S(C)(=N)=O)CC2)nc(-c2ccnc3[nH]ccc23)n1` (centres undefined), for which the viability, T/C is, setting by setting: (compound 0.0316 µM) 106% and 98.7% and 79.5%; (compound 0.1 µM) 97.3% and 97.8% and 89.9%; (compound 0.316 µM) 93.4% and 89.1% and 82.5%; (compound 1 µM) 59.2% and 58.9% and 55.1%; (compound 3.16 µM) 18.7% and 17.7% and 17%; (compound 10 µM) 9.35% and 7.04% and 9.31%. Moreover, for the setting “curve of compound”, the concentration for half-maximal inhibition (IC50) is 1290 nM and 1270 nM and 1170 nM.

`CC[C@@]1(O)C(=O)OCc2c1cc1n(c2=O)Cc2cc3c(CN(C)C)c(O)ccc3nc2-1`: the viability, T/C runs as follows: (compound 0.000999 µM) 84.9% and 109% and 105%; (compound 0.00316 µM) 89.6% and 94.4% and 100%; (compound 0.00999 µM) 96.2% and 103% and 85.5%; (compound 0.0316 µM) 88.4% and 94.7% and 87.2%; (compound 0.0999 µM) 48.2% and 59.4% and 42.4%; (compound 0.316 µM) 35.1% (2×) and 48.3%. Besides, for the setting “curve of compound”, the IC50 was 95 nM and 266 nM and 83.1 nM.

`CCc1c2c(nc3ccc(O)cc13)-c1cc3c(c(=O)n1C2)COC(=O)[C@]3(O)CC`: the viability, T/C (compound 0.000999 µM) was 77.2% and 89.1% and 77.4%; the viability, T/C (compound 0.00316 µM) is 38.9% and 53.4% and 39.7%; the viability, T/C (compound 0.00999 µM) is 37.3% and 53.9% and 33%; the viability, T/C (compound 0.0316 µM) was 32% and 42.5% and 33.4%; the viability, T/C (compound 0.0999 µM) was 27.4% and 34.3% and 26%; the viability, T/C (compound 0.316 µM) is 23.4% and 26.1% and 21.4%. For the same compound, where the note is “curve of compound”, the IC50 is 2.46 nM and 8.66 nM and 2.44 nM.

Consider `CN(C)c1ccc(Nc2c3ccc(NC(=O)CCN4CCCC4)cc3nc3cc(NC(=O)CCN4CCCC4)ccc23)cc1`, for which the viability, T/C runs as follows: (compound 0.0316 µM) 97.6% [middle of 12 runs]; (compound 0.1 µM) 99.5% [middle of 12 runs]; (compound 1 µM) 20% [middle of 12 runs]; (compound 3.16 µM) 1.98% [middle of 11 runs]; (compound 10 µM) 0.43% [middle of 12 runs]. In addition, where the note is “compound alone, run of 02/26/2024”, the IC50 was 548 nM [middle of 12 runs].

Turning to `COc1cc(C2c3cc4c(cc3C(OC3OC5COC(C)OC5C(O)C3O)C3COC(=O)C23)OCO4)cc(OC)c1O` (centres undefined), the viability, T/C reads like this: (compound 0.0316 µM) 96.6% and 95.8% and 105%; (compound 0.1 µM) 89.9% and 93.5% and 94.8%; (compound 0.316 µM) 74.2% and 73.8% and 92.6%; (compound 1 µM) 47.9% and 42.6% and 70.5%; (compound 3.16 µM) 32.8% and 30.4% and 55.1%; (compound 10 µM) 23.5% and 21.9% and 44.2%. Besides, under “curve of compound”, the IC50 is 956 nM and 784 nM and 5260 nM.
